Assays:
[1] = biological target: T1, pseudo-kinase domain (JH2) of human V617F mutant JAK2 (Homo sapiens, UniProt O60674, F794H/V617F/W659A/W777A); test: JAK2 LanthaScreen JH2-V617F Binding Assay; settings: 50 nM Fluorescent JAK2-JH2 Tracer, 1 hour at 25° C.
T1 construct: pseudo-kinase domain (JH2, amino-acids 536-812 with 3 surface mutations W659A, W777A, F794H); His (C); purchased BPS Bioscience 79498; host or cells: baculovirus expression system
Method in brief: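 Biotinylated His-Avi-tagged JH2 domain (aa 536-812, V617F plus 3 surface mutations; 0.26 nM), baculovirus-expressed, incubated 1 hour at 25° C with compound, 50 nM fluorescent JH2 tracer and 0.25 nM streptavidin-Tb in pH 7.5 Tris buffer. Tracer displacement read by LanthaScreen TR-FRET; non-specific binding with 2 mM ATP; four-parameter IC50.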

[2] = biological target: T2, pseudo-kinase domain (JH2) of human Wild Type JAK2 (Homo sapiens, UniProt O60674, F794H/W659A/W777A); test: JAK2 LanthaScreen JH2-WT Binding Assay; settings: 50 nM Fluorescent JAK2-JH2 Tracer, 1 hour at 25° C.
T2 construct: pseudo-kinase domain (JH2, amino-acids 536-812 with 3 surface mutations W659A, W777A, F794H); His (C); purchased BPS Bioscience 79463; host or cells: baculovirus expression system
Method in brief: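 Biotinylated His-Avi-tagged JAK2 JH2 (aa 536-812, three surface mutations; 0.145 nM) competed with 50 nM fluorescent tracer, using 0.25 nM streptavidin-Tb, in pH 7.5 Tris buffer for 1 h at 25° C.; non-specific binding was set with 2 mM ATP. TR-FRET read; IC50 from four-parameter fit.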

[3] = biological target: T3, catalytic domain (JH1) of human JAK2 (Homo sapiens, UniProt O60674); test: JAK2 LanthaScreen JH1 Binding Assay; settings: 50 nM Fluorescent JAK2-JH1 Tracer, 2 hours at 25° C.
T3 construct: catalytic domain (JH1, amino acids 826-1132) of human JAK2; FLAG (N); purchased Carna Biosciences 08-445-20N; host or cells: baculovirus expression system
Method in brief: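 TR-FRET tracer-displacement binding using N-terminal FLAG-tagged, biotinylated JH1 (aa 826-1132, baculovirus-expressed) at 1.5 nM, with 50 nM fluorescent tracer and 0.5 nM streptavidin-Tb. Buffer was 50 mM Tris pH 7.5, 10 mM MgCl2, 5 mM DTT, 2 h at 25° C. Non-specific binding used 2 mM ATP; IC50 came from four-parameter fits.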

T3 sequence (O60674 826-1132): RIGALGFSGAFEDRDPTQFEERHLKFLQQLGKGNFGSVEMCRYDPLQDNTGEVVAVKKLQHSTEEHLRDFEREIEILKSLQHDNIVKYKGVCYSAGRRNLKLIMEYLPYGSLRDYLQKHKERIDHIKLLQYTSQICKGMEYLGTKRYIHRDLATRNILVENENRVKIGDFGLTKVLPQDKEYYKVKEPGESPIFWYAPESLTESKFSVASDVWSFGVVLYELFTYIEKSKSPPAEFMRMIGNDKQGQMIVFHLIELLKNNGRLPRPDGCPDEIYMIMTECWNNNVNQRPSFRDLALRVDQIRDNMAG
T2 sequence (O60674 536-812 W659A/W777A/F794H): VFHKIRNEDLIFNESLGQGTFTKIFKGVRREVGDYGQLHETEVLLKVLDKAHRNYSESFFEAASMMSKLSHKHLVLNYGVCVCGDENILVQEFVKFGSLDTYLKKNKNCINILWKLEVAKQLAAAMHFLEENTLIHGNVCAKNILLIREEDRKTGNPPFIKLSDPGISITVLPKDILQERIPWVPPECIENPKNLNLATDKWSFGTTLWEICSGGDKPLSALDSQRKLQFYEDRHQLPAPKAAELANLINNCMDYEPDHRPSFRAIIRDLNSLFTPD
T1 sequence (O60674 536-812 V617F/W659A/W777A/F794H): as the sequence (O60674 536-812 W659A/W777A/F794H) above, with V82F counted along it

Row | Structure (SMILES) | IC50 [1] | IC50 [2] | IC50 [3]
1 | COc1ccccc1-c1c(-c2ccc(C(=O)N(C)C)cc2)[nH]c2nc(N)[nH]c(=O)c12 [Example 56, 4-(2-Amino-5-(2-methoxyphenyl)-4-oxo-4,7-dihydro-3H-pyrrolo[2,3-d]pyrimidin-6-yl)-N,N-dimethylbenzamide] | 0.5 to 1 µM | 0.5 to 1 µM | > 2.5 µM
2 | COc1ccccc1-c1c(-c2ccccc2)[nH]c2nc(N)[nH]c(=O)c12 [Example 57, 2-Amino-5-(2-methoxyphenyl)-6-phenyl-3,7-dihydro-4H-pyrrolo [2,3-d]pyrimidin-4-one] | 1 to 2.5 µM | 1 to 2.5 µM | > 2.5 µM
3 | Nc1nc2[nH]c(-c3ccccc3)c(-c3cccc(F)c3)c2c(=O)[nH]1 [Example 58, 2-Amino-5-(3-fluorophenyl)-6-phenyl-3,7-dihydro-4H-pyrrolo[2,3-d] pyrimidin-4-one] | 1 to 2.5 µM | 1 to 2.5 µM | > 2.5 µM
4 | Nc1nc2[nH]c(-c3ccccc3)c(-c3ccccc3C(F)(F)F)c2c(=O)[nH]1 [Example 59, 2-Amino-6-phenyl-5-(2-(trifluoro-methyl)phenyl)-3,7-dihydro-4H-pyrrolo[2,3-d] pyrimidin-4-one] | > 2.5 µM | > 2.5 µM | > 2.5 µM
5 | Cc1cccc(-c2c(-c3ccc(C(=O)N(C)C)cc3)[nH]c3nc(N)[nH]c(=O)c23)c1 [Example 60, 4-(2-Amino-4-oxo-5-(3-tolyl)-4,7-dihydro-3H-pyrrolo[2,3-d]pyrimidin-6-yl)-N,N-dimethylbenzamide] | 0.5 to 1 µM | 0.5 to 1 µM | > 2.5 µM
6 | Cc1cccc(-c2c(-c3cccc(C(=O)N(C)C)c3)[nH]c3nc(N)[nH]c(=O)c23)c1 [Example 61, 3-(2-Amino-4-oxo-5-(3-tolyl)-4,7-dihydro-3H-pyrrolo [2,3-d]pyrimidin-6-yl)-N,N-dimethyl-benzamide] | 1 to 2.5 µM | 1 to 2.5 µM | > 2.5 µM
7 | COc1ccccc1-c1c(-c2ccc(S(C)(=O)=O)cc2)[nH]c2nc(N)[nH]c(=O)c12 [Example 62, 2-Amino-5-(2-methoxyphenyl)-6-(4-(methylsulfonyl)phenyl)-3,7-dihydro-4H-pyrrolo [2,3-d]pyrimidin-4-one] | 0.5 to 1 µM | 1 to 2.5 µM | > 2.5 µM
8 | COc1ccccc1-c1c(-c2cccc(S(C)(=O)=O)c2)[nH]c2nc(N)[nH]c(=O)c12 [Example 63, 2-Amino-5-(2-methoxyphenyl)-6-(3-(methylsulfonyl)phenyl)-3,7-dihydro-4H-pyrrolo[2,3-d] pyrimidin-4-one] | > 2.5 µM | > 2.5 µM | > 2.5 µM
9 | CN(C)S(=O)(=O)c1ccc(-c2[nH]c3nc(N)[nH]c(=O)c3c2-c2ccccc2F)cc1 [Example 64, 4-(2-Amino-5-(2-fluorophenyl)-4-oxo-4,7-dihydro-3H-pyrrolo[2,3-d]pyrimidin-6-yl)-N,N-dimethylbenzene-sulfonamide] | 0.1 to 0.5 µM | 0.1 to 0.5 µM | 0.1 to 0.5 µM
10 | COc1ccccc1-c1c(-c2ccc(S(=O)(=O)N(C)C)cc2)[nH]c2nc(N)[nH]c(=O)c12 [Example 65, 4-(2-Amino-5-(2-methoxyphenyl)-4-oxo-4,7-dihydro-3H-pyrrolo[2,3-d]pyrimidin-6-yl)-N,N-dimethylbenzene-sulfonamide] | 0.1 to 0.5 µM | 0.1 to 0.5 µM | > 2.5 µM
11 | COc1ccc(C)cc1-c1c(-c2ccc(S(=O)(=O)N(C)C)cc2)[nH]c2nc(N)[nH]c(=O)c12 [Example 66, 4-(2-Amino-5-(2-methoxy-5-methylphenyl)-4-oxo-4,7-dihydro-3H-pyrrolo[2,3-d]pyrimidin-6-yl)-N,N-dimethylbenzenesulfonamide] | 0.1 to 0.5 µM | 0.1 to 0.5 µM | > 2.5 µM
12 | Cc1cccc(-c2c(-c3ccc(S(=O)(=O)N(C)C)cc3)[nH]c3nc(N)[nH]c(=O)c23)c1F [Example 67, 4-(2-Amino-5-(2-fluoro-3-methylphenyl)-4-oxo-4,7-dihydro-3H-pyrrolo[2,3-d]pyrimidin-6-yl)-N,N-dimethylbenzenesulfonamide] | 0.1 to 0.5 µM | 0.1 to 0.5 µM | 0.1 to 0.5 µM
13 | COc1cccc(F)c1-c1c(-c2ccc(S(=O)(=O)N(C)C)cc2)[nH]c2nc(N)[nH]c(=O)c12 [Example 68, 4-(2-Amino-5-(2-fluoro-6-methoxyphenyl)-4-oxo-4,7-dihydro-3H-pyrrolo[2,3-d]pyrimidin-6-yl)-N,N-dimethylbenzenesulfonamide] | 0.5 to 1 µM | 0.5 to 1 µM | > 2.5 µM
14 | Cc1ccc(F)c(-c2c(-c3ccc(S(=O)(=O)N(C)C)cc3)[nH]c3nc(N)[nH]c(=O)c23)c1 [Example 69, 4-(2-Amino-5-(2-fluoro-5-methylphenyl)-4-oxo-4,7-dihydro-3H-pyrrolo[2,3-d]pyrimidin-6-yl)-N,N-dimethylbenzenesulfonamide] | 0.1 to 0.5 µM | 0.1 to 0.5 µM | 1 to 2.5 µM
15 | CCOc1ccccc1-c1c(-c2ccc(S(=O)(=O)N(C)C)cc2)[nH]c2nc(N)[nH]c(=O)c12 [Example 70, 4-(2-Amino-5-(2-ethoxyphenyl)-4-oxo-4,7-dihydro-3H-pyrrolo[2,3-d]pyrimidin-6-yl)-N,N-dimethylbenzenesulfonamide] | 1 to 2.5 µM | 1 to 2.5 µM | > 2.5 µM
16 | CN(C)S(=O)(=O)c1ccc(-c2[nH]c3nc(N)[nH]c(=O)c3c2-c2cccc3c2OC(C)(C)C3)cc1 [Example 71, 4-(2-Amino-5-(2,2-dimethyl-2,3-dihydrobenzofuran-7-yl)-4-oxo-4,7-dihydro-3H-pyrrolo[2,3-d]pyrimidin-6-yl)-N,N-dimethylbenzenesulfonamide] | > 2.5 µM | > 2.5 µM | > 2.5 µM

From patent US11919908B2, “Substituted pyrrolo[2,3-d]pyrimidine compounds as JAK2 V617F inhibitors” (Incyte Corporation, priority 2020, dated 2024)
